In US20070054927A1, “Fungicidal mixtures” (BASF AKTIENGESELLSCHAFT, priority 2003, published 2007):

System: Plasmopara viticola
Test: activity against peronospora of grapevines caused by Plasmopara viticola, protective application
Format: in vivo
Conditions: individual active compound, potted vines Müller-Thurgau, untreated control 71% infection
Description: The active compounds, separately or jointly, were prepared as a stock solution comprising 0.25% by weight of active compound in acetone or DMSO. 1% by weight of the emulsifier Uniperol® EL (wetting agent having emulsifying and dispersant action based on ethoxylated alkylphenols) was added to this solution, and the mixture was diluted with water to the desired concentration.
Use example—activity against peronospora of gravevines caused by Plasmopara viticola, protective application
Leaves of potted vines of the cultivar “Müller-Thurgau” were sprayed to runoff point with an aqueous suspension having the concentration of active compound stated below. The next day, the undersides of the leaves were inoculated with an aqueous zoospore suspension of Plasmopara viticola. The grapevines were then initially placed in a water-vapor-saturated chamber at 24° C. for 48 hours and then in a greenhouse at 20-30° C. for 5 days. After this period of time, the plants were again placed in a humid chamber for 16 hours to promote sporangiophore eruption. The extent of the development of the disease on the undersides of the leaves was then determined visually.
The visually determined percentages of infected leaf areas were converted into efficacies in % of the untreated control:
The efficacy (E) is calculated as follows using Abbot's formula: E=(1−α/β)·100 • α corresponds to the fungicidal infection of the treated plants in % and • β corresponds to the fungicidal infection of the untreated (control) plants in %
An efficacy of 0 means that the infection level of the treated plants corresponds to that of the untreated control plants; an efficacy of 100 means that the treated plants were not infected.
The expected efficacies of mixtures of active compounds were determined using Colby's formula (Colby, S. R. “Calculating synergistic and antagonistic responses of herbicide combinations”, Weeds, 15, 20-22, 1967) and compared with the observed efficacies.
Colby's formula: E=x+y−x·y/100 • E expected efficacy, expressed in % of the untreated control, when using the mixture of the active compounds A and B at the concentrations a and b • x efficacy, expressed in % of the untreated control, when using the active compound A at the concentration a • y efficacy, expressed in % of the untreated control, when using the active compound B at the concentration b

| SMILES | Efficacy in % of the untreated control (4 ppm in the spray liquor) | Efficacy in % of the untreated control (16 ppm in the spray liquor) |
| --- | --- | --- |
| CC1CCN(c2c(-c3c(F)cc(F)cc3F)c(Cl)nc3ncnn23)CC1 [I, 5-chloro-7-(4-methylpiperidin-1-yl)-6-(2,4,6-trifluorophenyl)-[1,2,4]triazolo[1,5-a]pyrimidine] | 1% | 44% |
| C[C@H](Nc1c(-c2c(F)cc(F)cc2F)c(Cl)nc2ncnn12)C(F)(F)F [comparative compound B] | 15% | 29% |
| CC1(C)CCC(Cc2ccc(Cl)cc2)C1(O)Cn1cncn1 (centres unmarked) [II (metconazole), 5-(4-chlorobenzyl)-2,2-dimethyl-1-[1,2,4]triazol-1-ylmethylcyclopentanol] | 1% | 1% |
| CC1CCN(c2c(-c3c(F)cccc3Cl)c(Cl)nc3ncnn23)CC1 [comparative compound A] | 0% | 15% |
